Results: patent US9290451B2 (Hoffmann-La Roche Inc., priority 2011, dated 2016)

Legend:
[1] = target: human CB2 receptors (Homo sapiens (Human), UniProt P34972); test: cAMP assay, CHO cells expressing human CB2 receptors; type: cell-based; settings: CHO cells expressing human CB2, cAMP; read-out: human CB2 EC50
Procedure, shortened: (§1)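 CHO cells expressing human CB1 or CB2 were preincubated 30 min at 30 °C in Krebs Ringer bicarbonate buffer with 1 mM IBMX, then exposed to compound 30 min at 30 °C. cAMP quantified by time-resolved FRET against a cAMP standard curve; EC50 values derived.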

[2] = target: human CB1 receptors (Homo sapiens (Human), UniProt P21554); test: cAMP assay, CHO cells expressing human CB1 receptors; type: cell-based; settings: CHO cells expressing human CB1, cAMP; read-out: human CB1 EC50
Chain of human CB1 receptors (P21554 whole entry): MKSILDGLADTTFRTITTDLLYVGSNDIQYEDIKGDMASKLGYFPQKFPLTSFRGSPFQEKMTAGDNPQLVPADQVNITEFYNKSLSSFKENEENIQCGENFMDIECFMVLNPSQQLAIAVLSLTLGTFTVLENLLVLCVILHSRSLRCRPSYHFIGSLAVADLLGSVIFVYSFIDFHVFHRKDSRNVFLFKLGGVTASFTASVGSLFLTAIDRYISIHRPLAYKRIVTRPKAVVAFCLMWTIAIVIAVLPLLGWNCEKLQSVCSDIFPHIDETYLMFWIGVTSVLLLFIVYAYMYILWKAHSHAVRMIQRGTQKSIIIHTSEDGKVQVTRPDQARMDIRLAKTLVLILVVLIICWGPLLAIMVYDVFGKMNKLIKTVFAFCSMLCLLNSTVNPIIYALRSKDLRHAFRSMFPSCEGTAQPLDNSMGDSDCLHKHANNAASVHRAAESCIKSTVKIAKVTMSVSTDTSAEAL
Procedure, shortened: as §1

Chain of human CB2 receptors (P34972 whole entry): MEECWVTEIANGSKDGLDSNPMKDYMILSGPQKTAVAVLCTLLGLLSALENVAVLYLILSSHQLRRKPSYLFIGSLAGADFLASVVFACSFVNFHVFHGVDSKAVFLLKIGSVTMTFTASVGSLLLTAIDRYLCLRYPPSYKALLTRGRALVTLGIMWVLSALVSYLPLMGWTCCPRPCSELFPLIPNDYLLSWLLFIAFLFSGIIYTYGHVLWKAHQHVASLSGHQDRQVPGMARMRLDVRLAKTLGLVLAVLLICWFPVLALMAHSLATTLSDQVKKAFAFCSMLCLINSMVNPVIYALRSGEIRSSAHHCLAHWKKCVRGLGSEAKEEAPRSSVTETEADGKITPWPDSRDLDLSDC

**Q.** Which results are given for Cc1nc(C(C)(C)NC(=O)c2ccc(C3CC3)c(OC(C)C(F)(F)F)n2)no1 (stereo not shown) [Example 373, 5-Cyclopropyl-6-(2,2,2-trifluoro-1-methyl-ethoxy)-pyridine-2-carboxylic acid [1-methyl-1-(5-methyl-[1,2,4]oxadiazol-3-yl)-ethyl]-amide]?
**A.** EC50 [1]: 127 nM; EC50 [2]: > 10000 nM

**Q.** Which results are given for NC(=O)[C@@H](NC(=O)c1ccc(C2CC2)c(OCC2CC2)n1)C1CC1 [Example 374, 5-Cyclopropyl-6-cyclopropylmethoxy-pyridine-2-carboxylic acid ((+)-carbamoyl-cyclopropyl-methyl)-amide]?
**A.** EC50 [1]: 28.1 nM; EC50 [2]: > 10000 nM

**Q.** Which EC50 [1] does the source give for NC(=O)[C@H](NC(=O)c1ccc(C2CC2)c(OCC2CC2)n1)C1CC1 [Example 375, 5-Cyclopropyl-6-cyclopropylmethoxy-pyridine-2-carboxylic acid ((−)-carbamoyl-cyclopropyl-methyl)-amide] here?
**A.** Its EC50 is 358 nM.

**Q.** What about the EC50 [2] of the same compound?
**A.** Its EC50 is over 10000 nM.

**Q.** With NC(=O)[C@@H](NC(=O)c1ccc(N2CC(F)(F)C2)c(OCC2CC2)n1)C1CC1 [Example 376, 6-Cyclopropylmethoxy-5-(3,3-difluoro-azetidin-1-yl)-pyridine-2-carboxylic acid ((+)-carbamoyl-cyclopropyl-methyl)-amide] as the compound, how does the EC50 [1] read?
**A.** Its EC50 is 59.5 nM.

**Q.** And the EC50 [2]?
**A.** Its EC50 is over 10000 nM.

**Q.** NC(=O)[C@H](NC(=O)c1ccc(N2CC(F)(F)C2)c(OCC2CC2)n1)C1CC1 [Example 377, 6-Cyclopropylmethoxy-5-(3,3-difluoro-azetidin-1-yl)-pyridine-2-carboxylic acid ((−)-carbamoyl-cyclopropyl-methyl)-amide] was tested. Which EC50 [1] did it give?
**A.** The EC50 was 178 nM.

**Q.** What about the EC50 [2] of the same compound?
**A.** Its EC50 is over 10000 nM.

**Q.** What does the source list for O=C(NC1(C(F)(F)F)CC1)c1ccc(N2CC(F)(F)C2)c(OCC2CC2)n1 [Example 378, 6-Cyclopropylmethoxy-5-(3,3-difluoro-azetidin-1-yl)-pyridine-2-carboxylic acid (1-trifluoromethyl-cyclopropyl)-amide]?
**A.** EC50 [1]: 6.4 nM; EC50 [2]: > 10000 nM

**Q.** What does the source list for Cc1nc([C@](C)(NC(=O)c2ccc(C3CC3)c(S(=O)(=O)CC(C)C)n2)C2CC2)no1 [Example 381, (+)-5-Cyclopropyl-6-(2-methyl-propane-1-sulfonyl)-pyridine-2-carboxylic acid [1-cyclopropyl-1-(5-methyl-[1,2,4]oxadiazol-3-yl)-ethyl]-amide]?
**A.** EC50 [1]: 11.4 nM; EC50 [2]: 240 nM

**Q.** How did the EC50 [1] turn out when Cc1nc([C@@](C)(NC(=O)c2ccc(C3CC3)c(S(=O)(=O)CC(C)C)n2)C2CC2)no1 [Example 382, (−)-5-Cyclopropyl-6-(2-methyl-propane-1-sulfonyl)-pyridine-2-carboxylic acid [1-cyclopropyl-1-(5-methyl-[1,2,4]oxadiazol-3-yl)-ethyl]-amide] was run?
**A.** Its EC50 is 50.8 nM.

**Q.** What about the EC50 [2] of the same compound?
**A.** The EC50 was over 10000 nM.
